CC(=O)Oc1ccc(C(c2ccc(OC(C)=O)cc2)c2ccccn2)cc1
solubility (mole fraction)
Conditions | 288.15 K | 293.15 K | 298.15 K | 303.15 K | 308.15 K
in DMAc | 0.0391 | 0.0448 | 0.0512 | 0.0583 | 0.0659
in DMF | 0.0372 | 0.0429 | 0.0492 | 0.0561 | 0.0638
in NMP | 0.0643 | 0.0703 | 0.0768 | 0.0837 | 0.0909
in THF | 0.0192 | 0.0237 | 0.0291 | 0.0355 | 0.0431
in acetone | 0.0124 | 0.0154 | 0.0189 | 0.0231 | 0.0281
in acetonitrile | 0.0112 | 0.0135 | 0.0162 | 0.0193 | 0.0229
in ethanol | 0.000471 | 0.000639 | 0.000852 | 0.00113 | 0.00149
in isopropanol | 0.000238 | 0.000327 | 0.000443 | 0.000599 | 0.000804
in methanol | 0.000961 | 0.00123 | 0.00155 | 0.00196 | 0.00245
in n-butanol | 0.000393 | 0.000537 | 0.000719 | 0.000968 | 0.00128
in n-propanol | 0.000462 | 0.000608 | 0.000788 | 0.00102 | 0.00131
in transcutol | 0.00761 | 0.0092 | 0.011 | 0.0131 | 0.0156
in water | 1.32e-07 | 1.56e-07 | 1.83e-07 | 2.14e-07 | 2.49e-07

Conditions | solubility (mole fraction)
in PEG-400, 288.15 K | 0.0132
in PEG-400, 293.15 K | 0.0154
in PEG-400, 298.15 K | 0.0179
in PEG-400, 303.15 K | 0.0206
in PEG-400, 308.15 K | 0.0237
